The source of these data is paper PMC5347165, “Killing of Staphylococcus aureus and Salmonella enteritidis and neutralization of lipopolysaccharide by 17-residue bovine lactoferricins: improved activity of Trp/Ala-containing molecules” (Scientific Reports, 2017).

Several values for one entry are separate records, joined by “and”; a condition that tells them apart may be missing. Identical values can stand only once.

Assay [1] deals with E. coli CICC21530 (serotype O157:H7). The assay is classed as cell-based, Escherichia coli. The conditions noted are these: microtiter broth dilution, 10^5 CFU/ml, 16‒18 h at 37 °C; representative of three independent experiments. As for the experimental part: (§1) The MIC values of LfcinB17-33 derivatives against bacteria were determined by the microtiter broth dilution method. Briefly, 10 μl of serially diluted aliquots of peptides were added to each well of 96-well microtiter plates, followed by the addition of 90 μl exponential phase bacteria (10^5 CFU/ml) and incubated for 16‒18 h at 37 °C.
Background: Dilution methods test growth across graded concentrations, often in twofold steps.

For the next assay, the system named is E. coli CVCC1515. The assay is classed as cell-based, Escherichia coli. The conditions noted are these: microtiter broth dilution, 10^5 CFU/ml, 16‒18 h at 37 °C; representative of three independent experiments. The method, then: as §1
In assay [2] the test system is genomic DNA from S. aureus ATCC25923. Briefly: Gel retardation (EMSA) of genomic DNA. The assay is classed as binding, Staphylococcus aureus. The conditions noted are these: 0.7% agarose gel, 10 min 37 °C; ratios tested 0, 0.5, 1, 2.5, 5, 10 (w/w). As for the experimental part: (§2) Genomic DNA was extracted from S. aureus ATCC25923, E. coli O157 and S. enteritidis CVCC3377 using a TIANamp Bacteria DNA Kit (TIANGEN Biotech Co., Ltd., Beijing). The gel retardation experiment was performed by mixing the bacterial DNA with different concentrations of Lfcin4 or Lfcin5 in 20 μl binding buffer (10 mM Tris-HCl, pH 8.0, 5% glycerol, 1 mM dithiothreitol, 1 mM EDTA, 20 mM KCl, and 50 μg/ml bovine serum albumin)[41]. The ratios of peptide to DNA were 0, 0.5, 1, 2.5, 5.0, and 10.0 (w/w). The mixtures were incubated for 10 min at 37 °C and then subjected to electrophoresis on a 0.7% agarose gel.
On the technique in general: In EMSA bound probe runs differently from free probe, usually more slowly.

Assay [3] deals with S. aureus ATCC25923. Briefly: Macromolecular synthesis, incorporation of radioactive precursors. The assay is classed as cell-based, Staphylococcus aureus. The settings on record: 1 × MIC; 3H-glucosamine. The method, then: The effects of each peptide on the incorporation of L-[methyl-^3H] thymidine, [5-^3H] uridine, D-[6-^3H(N)] glucosamine hydrochloride, and L-[3,4,5-^3H] leucine into DNA, RNA, peptidoglycans, and proteins were investigated in S. aureus ATCC25923. […] Radioactive precursors of ^3H-thymidine, ^3H-uridine, ^3H-leucine, and ^3H-glucosamine (40 μCi/ml) were added to cultures to measure macromolecular synthesis and incubated for 20 min at 37 °C. Cold 25% trichloroacetic acid (TCA) was added to the mixture and placed on ice for 30 min. After centrifugation, pellets were washed twice with 25% TCA, dried and counted with scintillation fluid on a MicroBeta 1450 scintillation counter (Perkin Elmer)[46].

A further assay relates to P. aeruginosa CICC21630. The assay is classed as cell-based, Pseudomonas aeruginosa. The conditions noted are these: microtiter broth dilution, 10^5 CFU/ml, 16‒18 h at 37 °C; representative of three independent experiments. The method, then: as §1
In assay [4] the test system is S. aureus ATCC25923. Put plainly: Outer membrane permeabilization, NPN uptake. The settings on record: 1×, 2× or 4 × MIC; HEPES buffer pH 7.2. The assay is classed as cell-based, Staphylococcus aureus. The method, then:
(§3) The effects of Lfcin4 and Lfcin5 on the outer membrane of S. aureus ATCC25923 and S. enteritidis CVCC3377 were determined by measuring the uptake of NPN[44][45]. Mid-log phase cells were washed with sterile normal saline three times and suspended in 5 mM HEPES buffer (pH 7.2, containing 5 mM glucose) to an OD at 600 nm of 0.5. […] The relative fluorescence intensity was measured using an Infinite M200 PRO plate reader. The excitation and emission wavelengths were set at 328 and 438 nm, respectively. Treatment with PBS severed as a negative control, and treatment with ampicillin or colistin was used as a positive control.

A further assay relates to S. enteritidis CVCC3377. Put plainly: Inner membrane permeabilization, PI staining by flow cytometry. The assay is classed as cell-based, Salmonella enteritidis. The settings on record: 1 × MIC, 37 °C, untreated 0.76%. The method, then: The permeabilization of the inner membrane was performed according to a previous report by Li et al. with slight modifications. […] Bacterial cells were then washed twice with PBS, fixed with 50 μg/ml PI and analyzed using a BD FACS Calibur Flow Cytometer (Franklin Lakes, New Jersey, USA). Data were analyzed using CellQuest Pro software (BD, USA).

Assay [5] deals with S. aureus ATCC25923. The assay is classed as cell-based, Staphylococcus aureus. The conditions noted are these: microtiter broth dilution, 10^5 CFU/ml, 16‒18 h at 37 °C; representative of three independent experiments. The method, then: as §1
Assay [6] deals with genomic DNA from E. coli O157. Briefly: Gel retardation (EMSA) of genomic DNA. The assay is classed as binding, Escherichia coli. The settings on record: 0.7% agarose gel, 10 min 37 °C; ratios tested 0, 0.5, 1, 2.5, 5, 10 (w/w). The method, then: as §2
A further assay concerns S. enteritidis CVCC337. Briefly: Outer membrane permeabilization, NPN uptake. The assay is classed as cell-based, Salmonella enteritidis. The conditions noted are these: 1×, 2× or 4 × MIC; HEPES buffer pH 7.2. As for the experimental part:
as §3

Assay [7] deals with genomic DNA from S. enteritidis CVCC3377. Put plainly: Gel retardation (EMSA) of genomic DNA. The assay is classed as binding, Salmonella enteritidis. The conditions noted are these: 0.7% agarose gel, 10 min 37 °C; ratios tested 0, 0.5, 1, 2.5, 5, 10 (w/w). The method, then:
as §2

The test system of assay [8] is S. aureus ATCC25923. Put plainly: Cell surface hydrophobicity, hexadecane partitioning. The conditions noted are these: peptide 1×, 2× or 4× MIC, 10 min 37 °C, increased from 5.27% (untreated) to this value, mean, n = 3. The assay is classed as cell-based, Staphylococcus aureus. The method, then: The effects of AMPs on the cell surface hydrophobicity of S. aureus ATCC25923 and S. enteritidis CVCC3377 were measured using the hexadecane partitioning method. Cells were grown to stationary phase in Mueller-Hinton broth at 37 °C, harvested by centrifugation at 5000 rpm for 4 min, washed twice with sterile normal saline, and suspended in 0.1 M KNO3 (pH 6.2) to an OD600 nm of 0.4. […] Sterile normal saline was used as a negative control, and the optical density at 600 nm was measured as OD0. Subsequently, a 1.2-ml cell suspension was mixed with 0.2 ml of hexadecane by vortexing for 1 min, and then, the mixture was incubated for 15 min. The OD600 nm value of the aqueous phase was determined as OD1. The hydrophobicity percentages were calculated by the following equation: hydrophobicity (%) = (1 − OD1/OD0) × 100%. All experiments were repeated three times.

For a further assay, the system named is LPS from E. coli O111:B4. Put plainly: LPS-induced endotoxemia model, survival. The assay is classed as in vivo, mouse (C57BL/6). The conditions noted are these: followed 7 d, groups of eight mice. The method, then: Male C57BL/6 mice (8 weeks old, 22 ± 2 g) were intraperitoneally injected with 30 mg/kg of LPS (0.2 ml) from E. coli O111:B4 cells as previously described. Mice were intraperitoneally injected with Lfcin4 or Lfcin5 (10, 15 or 20 mg/kg of body weight in 0.2 ml) or colistin (15 mg/kg of body weight in 0.2 ml) at 0.5, 8 and 24 h after inoculation with LPS, respectively. Mice injected with LPS or saline only served as positive or mock-treated controls, respectively. Survival was recorded every 12 h and followed for up to 7 d.

By MIC is commonly meant the lowest concentration that inhibits growth of the organism. A low value points to inhibition by little substance.

Consider “FKAWRWAWRMKKLAAPS [Lfcin4, 17-residue LfcinB17-31 derivative, Trp/Ala-containing]”, for which the MIC in assay [1] was 15 μM and 32 μg/ml; with E. coli CVCC1515, 15 μM and 32 μg/ml; with P. aeruginosa CICC21630 it was >58 μM and >128 μg/ml; against S. aureus ATCC25923 [5], 3.66 μM and 8 μg/ml. Moreover, the “peptide:DNA mass ratio at which migration of genomic DNA is impaired” value in [2] is on record as “over 1.0 mass ratio (peptide:DNA)”; in assay [6], “over 1.0 mass ratio (peptide:DNA)”; in [7] it was “greater than 2.5 mass ratio (peptide:DNA)”. For the same sequence, the “label incorporation into peptidoglycans (in words)” value in the assay on S. aureus ATCC25923 [3] is “increased label incorporation into peptidoglycans”. The “time to permeabilization of the outer membrane (NPN fluorescence)” value in the assay on S. aureus ATCC25923 [4] and in the assay on S. enteritidis CVCC337 was at most 1 min throughout. The PI-positive cells is reported as 2.94% in the assay on S. enteritidis CVCC3377 (30 min) and 18.90% with S. enteritidis CVCC3377 (120 min). The sequence also came in with a cell surface hydrophobicity in the assay with S. aureus ATCC25923 [8] of 18.87%. Besides, the survival rate is 75% with LPS from E. coli O111:B4 (10 mg/kg i.p. at 0.5, 8 and 24 h after LPS 30 mg/kg i.p.); 100% in the assay on LPS from E. coli O111:B4 (15 mg/kg i.p. at 0.5, 8 and 24 h after LPS 30 mg/kg i.p.); 100% with LPS from E. coli O111:B4 (20 mg/kg i.p. at 0.5, 8 and 24 h after LPS 30 mg/kg i.p.).
